Results published in publication PMC8402619 (Viruses, 2021).

Tests used:
CYP1A2 = assay: CYP induction in cryopreserved human hepatocytes; details: positive control, 50 µM, 48 h, n = 3 donors
CYP2B6 = assay: CYP induction in cryopreserved human hepatocytes; details: positive control, 1000 µM, 48 h, n = 3 donors
BCRP = molecular target: T1, BCRP (Homo sapiens, UniProt Q9UNQ0); assay: Bidirectional transport across MDCKII and MDCKII-BCRP cell monolayers; type: in vitro ADME; parameters: expressed in transfected cells; host or cells: MDCKII; details: positive control substrate 1 µM, mean ± SEM
T1 sequence (Q9UNQ0 1-655): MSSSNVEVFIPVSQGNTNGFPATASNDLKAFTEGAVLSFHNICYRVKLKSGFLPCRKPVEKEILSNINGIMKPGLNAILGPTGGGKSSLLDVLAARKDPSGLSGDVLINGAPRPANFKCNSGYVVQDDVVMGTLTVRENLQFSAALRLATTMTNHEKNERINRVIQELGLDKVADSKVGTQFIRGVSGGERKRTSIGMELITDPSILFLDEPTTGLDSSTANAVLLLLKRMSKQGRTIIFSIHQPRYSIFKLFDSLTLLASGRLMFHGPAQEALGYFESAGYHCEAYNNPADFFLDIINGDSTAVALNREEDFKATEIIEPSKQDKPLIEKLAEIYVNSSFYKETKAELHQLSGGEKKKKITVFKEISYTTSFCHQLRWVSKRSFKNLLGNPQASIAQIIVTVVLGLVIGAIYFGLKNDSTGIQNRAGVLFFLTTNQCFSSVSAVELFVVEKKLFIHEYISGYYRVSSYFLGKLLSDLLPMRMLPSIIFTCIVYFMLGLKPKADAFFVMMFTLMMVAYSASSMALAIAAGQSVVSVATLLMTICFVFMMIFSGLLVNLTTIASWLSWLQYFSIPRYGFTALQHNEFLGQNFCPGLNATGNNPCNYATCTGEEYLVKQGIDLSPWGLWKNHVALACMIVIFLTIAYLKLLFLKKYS

COc1ccc2[nH]c([S+]([O-])Cc3ncc(C)c(OC)c3C)nc2c1 (stereo not shown) [Omeprazole, reference compound]
mRNA Mean Fold Change ± SD CYP1A2 (CYP1A2): 26.4 ± 8.6

CCC1(c2ccccc2)C(=O)NC(=O)NC1=O [Phenobarbitol, reference compound]
mRNA Mean Fold Change ± SD CYP2B6 (CYP2B6): 18.5 ± 1.9

COc1cc2nc(N3CCN(C(=O)c4ccco4)CC3)nc(N)c2cc1OC [prazosin, reference compound]
efflux ratio (BCRP; dog, MDCK, untransfected control cells): 1 ± 0.09 | efflux ratio (BCRP; human, BCRP-transfected monolayers): 14.9 ± 4.9
